{"source": "patent US9718835B2", "about": "(China Medical University Hospital, priority 2013, dated 2017)", "key": {"[1]": {"test_system": "KB (epidermoid carcinoma of the nasopharynx)", "assay": "Sulforhodamine B cytotoxicity assay, KB", "assay_type": "cell-based, human", "details": "Table 1; 72 h; average ± SD; read-out: IC50 KB", "method": "(§1) The 12 novel 1-derivatives 9a-l were evaluated for in vitro antiproliferative activity against four human tumor cell lines, KB (nasopharyngeal), A-549 (lung), DU-145 (prostate), and KBvin (MDR KB subline), by using a sulforhodamine B colorimetric assay with triplicate experiments.^30 Compounds 1 and 3 were used as controls.\n(§2) The human tumor cell lines used in this manuscript were A-549 (lung carcinoma), MDA-MB-231 (triple-negative breast cancer), DU-145 (hormone-insensitive prostate cancer), KB (originally isolated from epidermoid carcinoma of the nasopharynx), KBvin (vincristine-resistant KB subline), and HCT116 (colorectal adenocarcinoma). These cell lines were obtained from the Lineberger Comprehensive Cancer Center (UNC-CH) or from ATCC (Manassas, Va.), except KBvin, which was a generous gift of Professor Y.-C. Cheng (Yale University). All cell lines were maintained and assayed in RPMI-1640 medium containing 2 mM L-glutamine and 25 mM HEPES (HyClone), supplemented with 10% heat-inactivated fetal bovine serum (HyClone), 100 μg/mL streptomycin, 100 IU/mL penicillin, and 0.25 μg/mL amphotericin B (Cellgro) in a humidified atmosphere containing 5% CO2 in air. Compound stock solutions were prepared at 10 mM in DMSO and diluted with culture medium with the final DMSO concentration ≦0.01% (v/v), a concentration without effect on cell growth. The 4-6×10^3 cells/well were cultured for 72 h with various concentrations of test compounds in 96-well plate at 37° C. […] Each assay was performed in triplicate with duplicated samples."}, "[2]": {"test_system": "human colorectal adenocarcinoma HCT116 xenograft", "assay": "Xenograft model antitumor assay", "assay_type": "in vivo, nu/nu mice", "details": "for mice showing complete regression: i.v. 7 days then i.p., n=8, 31-day study", "method": "Xenograft model antitumor assay using human colorectal adenocarcinoma cell line HCT116 was performed according to the regimen in Table 2. The 31-day study utilized four groups of mice (n=8) bearing established HCT116 xenograft with mean volumes of approximately 200 mm^3 on day one. The tumor growth and animal body weight change for each treatment group were measured three times per week (FIGS. 2 and 3). Compound 9a was administered intravenously (i.v.) for 7 days and then intraperitoneally (i.p.) at 5 and 10 mg/kg once every day (QD) to the end.\nFive- to six-week-old female nu/nu mice (National Laboratory Animal Center, Taiwan) were inoculated subcutaneously with 2×10^6 human colorectal adenocarcinoma HCT116 cells in flank. When the grafted tumor volume reached the average volume of 200 mm^3, mice were randomly divided into four groups (n=8). Vehicle control and compound 9a at 5 or 10 mg/kg were administered i.v. once a day (QD) for 7 days and then i.p. once a day to the end. As an experimental control group, 100 mg/kg of compound 3 was administered i.v. once a week (QWK) to the end. The length (L) and width (W) of graft was measured every 3 to 4 days to the end, and the tumor volume was calculated as LW^2/2. Results were evaluated statistically by Student's t-test. This study was approved by the Institutional Animal Care and Use Committee (IACUC) of the National Taiwan University (Taipei, Taiwan), and was performed according to the institutional guidelines."}, "ATM": {"test_system": "ATM", "assay": "Western blot analysis of ATM phosphorylation (DNA damage response)", "assay_type": "cell-based, human", "details": "after 0.5 h treatment", "method": "Activation of ATM kinase was confirmed by detecting the phosphorylation of downstream effectors, Chk1, Chk2, and histone H2AX.\nCells were harvested in PBS containing proteinase inhibitors and phosphatase inhibitors, and sonicated. Whole cell lysates were separated by SDS-PAGE and transferred to Immobilon P membrane (EMD Millipore). The membrane was incubated with primary antibody followed by labeling with horseradish peroxidase (HRP)-conjugated secondary antibody (EMD Millipore). Chemilluminence substrate kit (EMD Millipore) was used for detection of membrane-bound HRP, and visualized by the Luminsence image analyzer, LAS4000 (Fuji Photo Film Co., Japan).\nAntibodies to caspase-3, caspase-8, caspase-9, PARP, phospho-ATM (Ser1981), ATM, phospho-ATR (Ser428), phospho-Chk1 (Ser345), phospho-Chk2 (Thr68), Chk2, phospho-H2AX (Ser139), and phospho-p53 (Ser15) were purchased from Cell Signaling Technology. Antibodies against ATM, ATR, Chk1, and PUMA were from Santa Cruz Biotechnology. Antibodies against Topo I, Topo IIα, Topo IIβ, p53, FADD, BAX, Bcl-xL, and Bcl-2 were from BD Biosciences. Antibody to β-actin was purchased from EMD Millipore."}, "[3]": {"test_system": "MDA-MB-468 (Breast cancer)", "assay": "cells", "assay_type": "cell-based, human", "details": "Table 6; read-out: In vitro cytotoxicity MDA-MB-468 (Breast cancer)"}, "HCT 116 (Colon cancer)": {"test_system": "HCT 116 (Colon cancer)", "assay": "cells", "assay_type": "cell-based, human", "details": "Table 6; read-out: In vitro cytotoxicity HCT 116 (Colon cancer)"}, "[4]": {"test_system": "DU-145 (hormone-insensitive prostate cancer)", "assay": "Sulforhodamine B cytotoxicity assay, DU-145", "assay_type": "cell-based, human", "details": "Table 1; 72 h; average ± SD", "method": "as §1, §2"}}, "data": [{"smiles": "CC[C@@]1(OC(=O)CNC(Cc2ccc(OC)cc2)=NS(=O)(=O)c2ccc(C)cc2)C(=O)OCc2c1cc1n(c2=O)Cc2cc3ccccc3nc2-1", "note": "[Compound 9a]", "values": [{"measurement": "IC50", "setting": "[1]", "result": "140 ± 18", "unit": "nM"}, {"measurement": "mice showing complete regression", "setting": "[2]; 5 mg/kg QD", "result": "Two of eight"}, {"measurement": "antitumor activity in vivo (tumor growth)", "setting": "[2]; 5 mg/kg QD, P<0.01, Student's t-test", "result": "significant antitumor activity"}, {"measurement": "mice showing complete regression", "setting": "[2]; 10 mg/kg QD", "result": "three of eight"}, {"measurement": "antitumor activity in vivo (tumor growth)", "setting": "[2]; 10 mg/kg QD, P<0.001, Student's t-test", "result": "significant antitumor activity"}, {"measurement": "animal body weight change", "setting": "[2]; 5 and 10 mg/kg QD, xenograft mice", "result": "no significant changes in body weight"}, {"measurement": "ATM phosphorylation at Ser1981", "setting": "ATM", "result": "underwent phosphorylation at Ser1981 residue"}, {"measurement": "IC50", "setting": "[3]", "result": "22.8 ± 2.97", "unit": "nM"}, {"measurement": "IC50", "setting": "HCT 116 (Colon cancer)", "result": "46.1 ± 1.74", "unit": "nM"}, {"measurement": "IC50", "setting": "[4]", "result": "50 ± 3.8", "unit": "nM"}]}]}
